System: panel of cancer cell lines
Assay: Cell viability (CellTiter-Glo) dose-response across cancer cell line panel;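 note: after 72 h compound incubation with CellTiter-Glo ATP readout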
Assay type: cell-based, human
Details: Homo sapiens
Source text: Next, we explored the effect of CSN5 inhibition on the viability of cancer cells. To obtain a comprehensive picture, we generated dose–response curves with a CSN5 inhibitor across more than 500 cancer cell lines in a previously described standardized setting[47] (Supplementary Data 1).
A standardized CellTiter-Glo Assay (Promega #G7570) based on the quantification of ATP was applied according to the manufacturer's protocol to measure the amount of viable cells in culture. In brief, cells were seeded into 384-well plates at optimal density for each cell line. After 4 h, compounds were added at different concentrations in growth medium and incubated for another 72 h in a humidifying chamber at 37 °C and 5% CO2. […] EC50 values were calculated from the plot of percentage of inhibition versus inhibitor concentration using the nonlinear regression analysis software Origin 7.5SR6 (OriginLab Corp.).

COCc1ccccc1NCc1ccc([C@H]2[C@@H](O)CCCc3cncn32)c(-c2ccccc2Cl)c1 [CSN5i-2, (5S,6S)-5-(2′-chloro-5-(((2-(methoxymethyl)phenyl)amino)methyl)-[1,1′-biphenyl]-2-yl)-6,7,8,9-tetrahydro-5H-imidazo[1,5-a]azepin-6-ol] showed an EC50 (HEC-50B) of 0.2 µM, an EC50 (HEC-108) of 3.13 µM and an EC50 (HEC-151) of 1.28 µM. For the same molecule, the EC50 (HEC-251, HEC-251) was 0.513 µM, the EC50 (HEC-265) was 0.807 µM and the EC50 (HEL) was 0.404 µM. It also gave an EC50 (HEL 92.1.7, HEL 92.1.7) of 0.491 µM, an EC50 (HEY A8, Hey-A8) of 1.99 µM and an EC50 (HL-60, HL-60) of 0.871 µM. For the same molecule, the EC50 (HLC-1) was 3.33 µM, the EC50 (HLE) was 1.36 µM and the EC50 (HLF) was 0.697 µM. For the same molecule, the EC50 (HMC-1-8) was 1.11 µM, the EC50 (HPAC) was 1.99 µM and the EC50 (HPBALL, HPB-ALL) was 1.02 µM. It also gave an EC50 (HRT-18, HRT-18) of 1.03 µM, an EC50 (HSC-2, HSC-2) of 0.892 µM and an EC50 (HSC-3, HSC-3) of 0.637 µM. For the same molecule, the EC50 (HSC-4, HSC-4) was 1.05 µM, the EC50 (HT-29, HT-29) was 2.39 µM and the EC50 (HT-1080, HT-1080) was 0.407 µM. For the same molecule, the EC50 (Hep3B) was 1.09 µM, the EC50 (Hep 3B2.1-7) was 1.8 µM and the EC50 (Hs 294T) was 1.95 µM. The EC50 (Hs 695T) was 0.7 µM, the EC50 (Hs766T, Hs 766T) was 10.8 µM and the EC50 (Hs 852.T) was 2.2 µM. The EC50 (Hs 936.T) was 1.54 µM, the EC50 (Hs 944.T) was 0.778 µM and the EC50 (HuG1-N) was 14 µM. The EC50 (HuP-T3, HUP-T3) was 0.349 µM, the EC50 (Huh-7, HuH-7) was 0.309 µM and the EC50 (IGR-37, IGR-37) was 4.04 µM. It also gave an EC50 (IGR-39, IGR-39) of 1.72 µM, an EC50 (IGROV-1, IGROV1) of 7.24 µM and an EC50 (IPC-298, IPC-298) of 1.23 µM. It also gave an EC50 (IST-MES2) of 0.609 µM, an EC50 (Ishikawa) of 1.55 µM and an EC50 (J82, J82) of 4.93 µM. The EC50 (JHH7, JHH-7) was 2.44 µM, the EC50 (JHH-4, JHH-4) was 0.388 µM and the EC50 (JHOS-2) was > 30 µM. The EC50 (JHUEM-2) was 0.912 µM, the EC50 (JHUEM-3) was > 30 µM and the EC50 (JIMT-1, JIMT-1) was 22.6 µM. It also gave an EC50 (JL-1) of 0.718 µM, an EC50 (JU77) of 0.857 µM and an EC50 (JVM-2, JVM-2) of 0.553 µM. It also gave an EC50 (K029AX) of 3.06 µM, an EC50 (KARPAS-422, KARPAS-422) of 1.75 µM and an EC50 (KATO III) of 9.81 µM. The EC50 (KBM-7, KBM-7) was 0.229 µM, the EC50 (KCI-MOH1) was 0.797 µM and the EC50 (KE-97, KE-97) was 0.547 µM. The EC50 (KLE) was 1.26 µM, the EC50 (KM12, KM12) was 3.47 µM and the EC50 (KMM-1, KMM-1) was 0.685 µM. For the same molecule, the EC50 (KMRC-1, KMRC-1) was 1.89 µM, the EC50 (KMRC-20) was 0.788 µM and the EC50 (KMS-11, KMS-11) was 0.215 µM. For the same molecule, the EC50 (KNS-60) was 6.14 µM, the EC50 (KNS-62, KNS-62) was 8.05 µM and the EC50 (KO52) was 0.861 µM. The EC50 (KP-1N) was 1.11 µM, the EC50 (KP-1NL) was > 30 µM and the EC50 (KP-2) was 0.942 µM. For the same molecule, the EC50 (KP-3) was 1.89 µM, the EC50 (KP-4, KP4) was 1.21 µM and the EC50 (KS-1) was 9.04 µM. The EC50 (KU-19-19, KU-19-19) was 1.97 µM, the EC50 (KURAMOCHI) was 0.392 µM and the EC50 (KYSE-30, KYSE-30) was 1.7 µM. It also gave an EC50 (KYSE-70, KYSE-70) of 6.04 µM, an EC50 (KYSE-150, KYSE-150) of 13.4 µM and an EC50 (KYSE-180, KYSE-180) of 2.15 µM. The EC50 (KYSE-410, KYSE-410) was 11 µM, the EC50 (Kasumi-3, Kasumi3) was 0.39 µM and the EC50 (Kasumi-6) was 4.46 µM. It also gave an EC50 (L3.3) of 1.39 µM, an EC50 (L-363, L-363) of 0.251 µM and an EC50 (L-428, L-428) of 0.59 µM. It also gave an EC50 (LC-1/sq-SF) of 24 µM, an EC50 (LC-1F) of 6.99 µM and an EC50 (LC-2-ad, LC2/ad) of 3.57 µM. For the same molecule, the EC50 (LCLC-103H) was 21.5 µM, the EC50 (LIM1899) was 0.884 µM and the EC50 (LIM2099) was 0.391 µM. The EC50 (LIM2405) was 2.38 µM, the EC50 (LIM2550) was 1.04 µM and the EC50 (LMSU) was 0.247 µM. It also gave an EC50 (LN-18, LN-18) of 0.708 µM, an EC50 (LN-229, LN-229) of 2.6 µM and an EC50 (LO68) of 3.37 µM. It also gave an EC50 (LOU-NH91, LOU-NH91) of 1.35 µM, an EC50 (LOX IMVI) of 0.952 µM and an EC50 (LP-1, LP-1) of 1.09 µM. It also gave an EC50 (LS180, LS 180) of 0.448 µM, an EC50 (LUDLU-1, LUDLU-1) of 3.41 µM and an EC50 (Li-7, Li-7) of 0.766 µM. For the same molecule, the EC50 (Lu-65, LU65) was 0.558 µM, the EC50 (Lu-99, LU99) was 0.25 µM and the EC50 (M-07e) was 7.18 µM. It also gave an EC50 (MCAS) of 0.692 µM, an EC50 (MCC13) of 0.846 µM and an EC50 (MCC14/2) of 0.282 µM. It also gave an EC50 (MCC26) of 1.44 µM, an EC50 (MDA-MB-134-VI) of 0.694 µM and an EC50 (MDA-MB-157, MDA-MB-157) of 2.49 µM. The EC50 (MDA-MB-175-VII) was 3.51 µM, the EC50 (MDA-MB-231, MDA-MB-231) was 1.58 µM and the EC50 (MDA-MB-435S) was 4.47 µM. For the same molecule, the EC50 (MDA-MB-436, MDA-MB-436) was 0.387 µM, the EC50 (MDA-MB-453, MDA-MB-453) was 7.12 µM and the EC50 (MDA-MB-468, MDA-MB-468) was 5.94 µM. The EC50 (MDST8, MDST8) was 1.39 µM, the EC50 (ME-180, ME180) was 0.63 µM and the EC50 (MEC1, MEC-1) was 0.517 µM. It also gave an EC50 (MEL-HO) of 10.5 µM, an EC50 (MEL-JUSO) of 11.2 µM and an EC50 (MES-SA) of 0.889 µM. The EC50 (MFE-280, MFE-280) was 5.45 µM, the EC50 (MFE-296, MFE-296) was 0.518 µM and the EC50 (MFE-319) was 11.1 µM. For the same molecule, the EC50 (MFM-223, MFM223) was 0.769 µM, the EC50 (MG-63, MG-63) was 0.478 µM and the EC50 (MIA PaCa-2, MIA PaCa-2) was 1.81 µM. The EC50 (MINO) was 0.204 µM, the EC50 (MKN-1, MKN1) was 2.03 µM and the EC50 (MKN-45, MKN-45) was 1.71 µM. It also gave an EC50 (ML-2, ML-2) of 0.687 µM, an EC50 (MM127) of 0.508 µM and an EC50 (MM138) of 1.52 µM. For the same molecule, the EC50 (MM170) was 11.4 µM, the EC50 (MM370) was 6.22 µM and the EC50 (MM383) was 1.19 µM. It also gave an EC50 (MM386) of 2.07 µM, an EC50 (MM415) of 1.37 µM and an EC50 (MM426) of 3.04 µM. For the same molecule, the EC50 (MM466) was 2.25 µM, the EC50 (MM473, MM473) was 2.22 µM and the EC50 (MM485) was 0.521 µM. For the same molecule, the EC50 (MM537) was 2.63 µM, the EC50 (MM576) was 7.15 µM and the EC50 (MM603) was 0.286 µM.

From PMC5078989, “Targeted inhibition of the COP9 signalosome for treatment of cancer” (Nature Communications, 2016)
